From patent US11998017B2, “Bio-pesticide for Japanese beetles” (priority 2022, dated 2024)

Tested on: Japanese beetle
Test: neurological response / paralysis of Japanese beetle after consuming or absorbing quisqualic acid
Type: in vivo, Popillia Japonica
From the text: The pesticide composition according to one or more embodiments described herein makes use of a phenomenon that is unique to the Japanese beetle. A primary active ingredient of the pesticide is the amino acid quisqualic acid, which elicits a unique neurological response specifically from the Japanese beetle. Quisqualic acid is naturally occurring in the Pelargonium and Quisqualic indica species of plants. As part of this disclosure, it was discovered that ingestion of the plants' essential oil is not required, but that the absorption of the plants' essential oil through contact by the Japanese beetle, can provoke a sufficient neurological response from the beetle, followed by 24-hour paralysis of the Japanese beetle. That is, the Japanese beetle need not consume the composition according to one or more embodiments herein. The composition is an effective pesticide through contact only by the Japanese beetle.
Japanese beetles that do land on the leaves, become saturated with the oil and absorb the paralysis-inducing quisqualic acid. Japanese beetles that do feed on the foliage may then also consume the quisqualic acid. […]

How did the “duration of paralytic state” value (after consumption or absorption through contact) turn out when `N[C@@H](Cn1oc(=O)[nH]c1=O)C(=O)O` [quisqualic acid] was run?
The value was 24 h.

What about the “time until beetles fall into paralytic state” value (beetles that consume or absorb the quisqualic acid) of the same compound?
The value was 4 to 6 h.
